Laboratory results from patent publication US8222260B2, “Substituted 6-anilinopurine derivatives as inhibitors of cytokinin oxidase/dehydrogenase and preparations containing these derivatives” (Univerzita Palackego V Olomouci, priority 2007, dated 2012).

Columns and labels:
AHK3 = molecular target: T1, AHK3 (Arabidopsis thaliana, UniProt Q9C5U1); assay: Activation of cytokinin receptors (E. coli KMI001 beta-galactosidase reporter); type: cell-based; conditions: 28 h incubation; n.a. means no activation
T1 sequence (Q9C5U1 1-1036): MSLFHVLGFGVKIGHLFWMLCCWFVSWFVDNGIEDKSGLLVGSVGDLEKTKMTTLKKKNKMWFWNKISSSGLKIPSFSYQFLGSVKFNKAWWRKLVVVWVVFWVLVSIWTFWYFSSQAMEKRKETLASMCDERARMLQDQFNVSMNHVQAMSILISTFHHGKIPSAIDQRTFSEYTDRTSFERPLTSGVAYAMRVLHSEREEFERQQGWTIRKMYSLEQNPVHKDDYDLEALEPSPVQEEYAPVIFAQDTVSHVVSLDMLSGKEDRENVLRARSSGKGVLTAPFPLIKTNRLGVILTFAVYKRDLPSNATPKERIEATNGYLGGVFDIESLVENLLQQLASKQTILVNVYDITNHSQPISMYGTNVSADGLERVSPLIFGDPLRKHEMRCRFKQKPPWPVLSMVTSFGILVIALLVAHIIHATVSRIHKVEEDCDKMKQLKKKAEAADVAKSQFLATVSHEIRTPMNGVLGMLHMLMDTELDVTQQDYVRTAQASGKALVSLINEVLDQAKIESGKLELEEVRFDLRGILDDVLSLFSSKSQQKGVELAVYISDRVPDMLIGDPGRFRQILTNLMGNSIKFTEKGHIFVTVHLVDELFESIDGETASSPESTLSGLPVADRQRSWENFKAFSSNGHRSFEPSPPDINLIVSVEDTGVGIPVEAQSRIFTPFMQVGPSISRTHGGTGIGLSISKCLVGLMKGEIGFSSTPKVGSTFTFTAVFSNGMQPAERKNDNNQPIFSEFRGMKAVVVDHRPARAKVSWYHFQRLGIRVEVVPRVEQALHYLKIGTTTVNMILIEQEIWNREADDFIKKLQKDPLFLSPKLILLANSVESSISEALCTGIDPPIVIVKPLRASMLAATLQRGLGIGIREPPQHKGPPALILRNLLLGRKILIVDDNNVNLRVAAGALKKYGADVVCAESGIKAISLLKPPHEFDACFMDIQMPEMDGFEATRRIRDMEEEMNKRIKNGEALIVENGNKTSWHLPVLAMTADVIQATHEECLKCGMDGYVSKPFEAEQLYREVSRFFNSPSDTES
Protocol: (§1) Escherichia coli strains KMI001 harbouring the plasmid […]4 or […]3 were grown overnight at 25° C. in M9 media enriched with 0.1% casamino acids to OD600 1. The preculture was diluted 1:600 in 1 ml M9 medium containing 0.1% casamino acids and 1 μl stock solution of either the tested compound (10^-7 M-5×10^-5 M) or solvent control (DMSO, ethanol, methanol) were added. The cultures were further grown at 25° C. in microtiter plate, 200 μl per well. […] The cultures were centrifuged and 50 μl aliquots of the supernatant were transferred to microtiter plate containing 2 μl 150 mM 4-methyl umbelliferyl galactoside which was subsequently incubated for 1 h at 37° C. The reaction was stopped by adding 100 μl 0.2 M Na2CO3. […] The EC50 value, the compound concentration activating the receptor to 50%, was calculated from the obtained dose response curves. The values shown in Table 10 are means of three replicates and the entire test was repeated at least twice.

CRE1/AHK4 = CRE1/AHK4 (Arabidopsis thaliana, UniProt Q9C5U0); assay: as above; type: cell-based; conditions: 17 h incubation; n.a. means no activation
Protocol: as §1

[1] = tested on: cytokinin-dependent tobacco callus Nicotiana tabacum L. cv. Wisconsin 38; assay: Tobacco callus biotest (plant cell division); type: cell-based; conditions: at the concentration with highest activity, relative to 10^−5 M kinetin
Protocol: The stimulatory effect of the newly prepared derivatives was tested in the calus biotest using cytokinin-dependent tobacco callus. Cytokinin-dependent tobacco callus Nicotiana tabacum L. cv. Wisconsin 38 was maintained at 25° C. in darkness on modified Murashige-Skoog medium, containing per 1 liter: 4 μmol of nicotinic acid, 2.4 μmol of pyridoxine hydrochloride, 1.2 μmol of thiamine, 26.6 μmol of glycine, 1.37 μmol of glutamine, 1.8 μmol of myo-inositol, 30 g of sucrose, 8 g of agar, 5.37 μmol of NAA and 0.5 μmol of 6-benzylaminopurine. Subcultivation was carried out every three weeks. Fourteen days before the bioassay, the callus tissue was transferred to the media without 6-benzylaminopurine. The biological activity was determined from the increase of the fresh callus weight after four weeks of cultivation. Five replicates were prepared for each concentration of the compound tested and the entire test was repeated twice. […] The compounds to be tested were dissolved in dimethylsulfoxide (DMSO) and the solution brought up to 10^−3 M with distilled water.
From the obtained data, the concentration with the highest activity was selected for each compound tested. Relative activity of the compound at this concentration was calculated (Table 11). The activity obtained for 10^−5 M of the control substance kinetin (K) was postulated as 100%.

[2] = tested on: Amaranthus caudatus cotyledon/hypocotyl explants; assay: Amaranthus bioassay (betacyanin content); type: cell-based, Amaranthus caudatus var. atropurpurea; conditions: at the concentration with highest activity, relative to 10^−5 M kinetin
Protocol: The standard Amaranthus bioassay was performed with the following modifications. The seeds of Amaranthus caudatus var. atropurpurea were surface-sterilised in 10% (w/v) N-chlorobenzenesulfonamide for 10 min and washed 5 times with deionized water. They were placed in 15 cm Petri dishes containing paper tissues saturated with deionized water. After 72 h of cultivation at 25° C. in darkness, the roots of the seedlings were cut off. The explants, consisting of two cotyledons and hypocotyls, were placed in 5 cm Petri dishes onto two layers of filtration paper soaked with 1 ml of the incubation medium containing 10 μmol of Na2HPO4—KH2PO4, pH 6.8, 5 μmol of tyrosine and the compound to be tested. There were 20 explants per dish. The procedure was carried out under green safe light in a darkroom. After 48 h of incubation at 25° C. in darkness, betacyanin was extracted by freezing the explants in 4 ml 3.33 μM acetic acid. The concentration of betacyanin was determined from the absorbances at 537 nm and 620 nm as follows: ΔA=A537nm−A620nm. The values ΔA were plotted against the concentration tested, are means of five replicates and the entire test was repeated at least twice. […] The compounds to be tested were dissolved in dimethylsulfoxide (DMSO) and the solution brought up to 10^−3M with distilled water.
From the obtained data, the concentration with the highest activity was selected for each compound tested. Relative activity of the compound at this concentration was calculated (Tab. 12). The activity obtained for 10^−5 M kinetin (K) was postulated as 100%.

recombinant AtCKX2 = molecular target: T2, recombinant AtCKX2 (Arabidopsis thaliana, UniProt Q9FUJ3); assay: Inhibition of cytokinin oxidase/dehydrogenase activity (PMS/MTT microtitre plate assay); type: biochemical; conditions: 30 μM iP as substrate, pH 7.4, 37° C.; means of three replicates; read-out: IC50, inhibition of recombinant AtCKX2
T2 sequence (Q9FUJ3 23-501): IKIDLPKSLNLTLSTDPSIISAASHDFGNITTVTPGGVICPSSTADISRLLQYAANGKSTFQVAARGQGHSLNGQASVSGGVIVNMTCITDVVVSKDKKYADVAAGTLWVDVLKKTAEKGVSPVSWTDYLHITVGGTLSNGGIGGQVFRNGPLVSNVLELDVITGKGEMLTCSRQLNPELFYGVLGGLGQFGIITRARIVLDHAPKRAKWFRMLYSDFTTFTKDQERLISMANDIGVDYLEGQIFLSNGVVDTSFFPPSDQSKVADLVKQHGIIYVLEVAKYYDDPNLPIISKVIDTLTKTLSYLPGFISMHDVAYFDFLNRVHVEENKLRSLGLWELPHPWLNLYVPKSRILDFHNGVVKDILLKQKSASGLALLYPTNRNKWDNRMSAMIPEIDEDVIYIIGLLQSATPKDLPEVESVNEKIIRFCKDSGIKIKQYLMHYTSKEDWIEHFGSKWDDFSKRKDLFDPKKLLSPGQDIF
Protocol: IC50 determinations were done using the assay in microtitre plate. Each well contained 100 μL of PMS/MTT [phenazine methosulfate/3-(4,5-dimethylthiazol-2-yl)-2,5-diphenyltetrazolium bromide] reaction mixture (final concentrations: 0.1 M KH2PO4, pH 7.4, 1 mM MTT, 0.2 mM PMS) containing the tested compound (3×10^−7 M-3×10^−4 M) and 30 μM N^6-isopentenyladenine (iP) as a substrate. 100 μL of cell-free growth medium of S. cerevisiae strain 23344c ura^− harboring the plasmid pYES2-AtCKX2 was directly used as a source of AtCKX2. Plates were incubated in the dark for […] at 37° C. and the enzymatic reaction was stopped by 25 μL of 35% acetic acid. The absorbance at 578 nm was measured using spectrophotometer Tecan. Absorbance of the sample without iP was subtracted.
The IC50 value, the compound concentration that inhibits the enzyme activity to 50%, was calculated from the obtained dose response curves. The values shown in Table 9 are means of three replicates and the entire test was repeated at least twice.

Sequence of CRE1/AHK4 (Q9C5U0 whole entry): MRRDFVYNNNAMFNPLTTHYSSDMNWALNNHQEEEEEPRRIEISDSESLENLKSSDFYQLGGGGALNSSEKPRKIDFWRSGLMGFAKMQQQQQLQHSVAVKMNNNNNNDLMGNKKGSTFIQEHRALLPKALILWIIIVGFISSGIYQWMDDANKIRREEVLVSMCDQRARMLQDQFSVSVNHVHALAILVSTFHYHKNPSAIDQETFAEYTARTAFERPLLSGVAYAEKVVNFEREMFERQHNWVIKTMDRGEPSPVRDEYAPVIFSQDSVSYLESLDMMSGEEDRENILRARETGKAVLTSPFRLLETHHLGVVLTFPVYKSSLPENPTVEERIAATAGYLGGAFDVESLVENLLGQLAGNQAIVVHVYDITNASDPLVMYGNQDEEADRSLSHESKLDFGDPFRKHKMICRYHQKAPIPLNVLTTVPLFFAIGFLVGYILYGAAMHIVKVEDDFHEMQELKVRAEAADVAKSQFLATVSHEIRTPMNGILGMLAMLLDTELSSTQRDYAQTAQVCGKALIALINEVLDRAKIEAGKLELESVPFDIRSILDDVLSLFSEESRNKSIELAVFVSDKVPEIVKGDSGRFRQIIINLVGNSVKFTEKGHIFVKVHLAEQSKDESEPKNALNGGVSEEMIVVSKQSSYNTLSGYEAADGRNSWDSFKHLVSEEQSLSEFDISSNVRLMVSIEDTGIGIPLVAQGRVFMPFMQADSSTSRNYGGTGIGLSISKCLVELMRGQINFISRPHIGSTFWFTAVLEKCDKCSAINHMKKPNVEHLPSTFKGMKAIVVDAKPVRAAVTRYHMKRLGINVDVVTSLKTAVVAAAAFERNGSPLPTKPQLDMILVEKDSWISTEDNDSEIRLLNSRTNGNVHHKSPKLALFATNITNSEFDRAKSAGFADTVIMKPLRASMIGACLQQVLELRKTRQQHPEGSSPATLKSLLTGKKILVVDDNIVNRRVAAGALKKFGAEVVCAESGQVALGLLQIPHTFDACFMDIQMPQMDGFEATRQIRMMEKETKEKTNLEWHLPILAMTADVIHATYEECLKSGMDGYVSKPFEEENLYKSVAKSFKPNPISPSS

Row | SMILES | EC50 (AHK3) [µM] | EC50 (CRE1/AHK4) [µM] | Activity (%) [10^−5 mol · l^−1 K = 100%] [1] [%] | Activity (%) [10^−5 mol · l^−1 K = 100%] [2] [%] | IC50 (recombinant AtCKX2) [µM]
1 | CSc1nc(Nc2cccc(F)c2)c2nc[nH]c2n1 [Compound 98] | 32 | 49 | 130.3 | 142.5 | 
2 | Oc1ccccc1Nc1nc(F)nc2[nH]cnc12 [Compound 47] | 45.8 | > 50 |  |  | 
3 | COc1cccc(Nc2nc(S)nc3[nH]cnc23)c1 [Compound 88] | 31.7 |  | 103.4 | 113.4 | 28.3
4 | COc1cccc(Nc2nc(C)nc3nc[nH]c23)c1 [Compound 118, 2-Methyl-6-(3-methoxyanilino)purine] | > 50 |  | 105.7 | 144.2 | 9.4
5 | Cc1ccc(Nc2nc(Cl)nc3[nH]cnc23)cc1C [Compound 30] | > 50 | 33.3 |  |  | 
6 | Cc1nc(Nc2cccc(Cl)c2)c2nc[nH]c2n1 [Compound 111] | > 50 |  | 128.3 |  | 15.7
7 | CSc1nc(Nc2cccc(Cl)c2)c2nc[nH]c2n1 [Compound 96] | 29 | 41 | 121.2 | 145.8 | 
8 | Oc1ccc(Nc2nc(F)nc3[nH]cnc23)cc1 [Compound 49] | > 50 | 37.1 | 106 |  | 
9 | Cc1nc(Nc2cccc(F)c2)c2nc[nH]c2n1 [Compound 113] |  |  | 125.3 | 120.2 | 21.8
10 | COc1ccccc1Nc1nc(F)nc2[nH]cnc12 [Compound 50] | 17.4 | > 50 | 117.6 | 105.2 | 
11 | Nc1nc(Nc2ccccc2O)c2[nH]cnc2n1 [Compound 71] | > 50 | > 50 |  |  | 
12 | Sc1nc(Nc2cccc(Cl)c2)c2nc[nH]c2n1 [Compound 80] | 42 |  | 126 | 106 | 28.4
13 | COc1cccc(Nc2nc(N)nc3nc[nH]c23)c1 [Compound 75, 2-Amino-6-(3-methoxyanilino)purine] | 20.4 |  |  | 123.6 | 24.7
